Reference: PubChem BioAssay AID623893 (Vanderbilt Specialized Chemistry Center, 2012)
Active and inactive are the calls of the source.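 The calls were made as follows: active = fold change in agonist EC50 with compound of 2 or more, a potentiator, or 0.5 or less, a blocker; inactive = fold change strictly between 0.5 and 2.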

Molecular target: Metabotropic glutamate receptor 7 (Rattus norvegicus) (UniProt P35400)
Assay: off-target activity at rat mGlu7, profiling panel, selectivity assay for mGlu4 lead optimization, cell-based, thallium flux, L-AP4 agonist (AID 623893)
Conditions: mGlu7 cells, at 10 µM

Chain of Metabotropic glutamate receptor 7 (Rattus norvegicus) (P35400 whole entry, looked up): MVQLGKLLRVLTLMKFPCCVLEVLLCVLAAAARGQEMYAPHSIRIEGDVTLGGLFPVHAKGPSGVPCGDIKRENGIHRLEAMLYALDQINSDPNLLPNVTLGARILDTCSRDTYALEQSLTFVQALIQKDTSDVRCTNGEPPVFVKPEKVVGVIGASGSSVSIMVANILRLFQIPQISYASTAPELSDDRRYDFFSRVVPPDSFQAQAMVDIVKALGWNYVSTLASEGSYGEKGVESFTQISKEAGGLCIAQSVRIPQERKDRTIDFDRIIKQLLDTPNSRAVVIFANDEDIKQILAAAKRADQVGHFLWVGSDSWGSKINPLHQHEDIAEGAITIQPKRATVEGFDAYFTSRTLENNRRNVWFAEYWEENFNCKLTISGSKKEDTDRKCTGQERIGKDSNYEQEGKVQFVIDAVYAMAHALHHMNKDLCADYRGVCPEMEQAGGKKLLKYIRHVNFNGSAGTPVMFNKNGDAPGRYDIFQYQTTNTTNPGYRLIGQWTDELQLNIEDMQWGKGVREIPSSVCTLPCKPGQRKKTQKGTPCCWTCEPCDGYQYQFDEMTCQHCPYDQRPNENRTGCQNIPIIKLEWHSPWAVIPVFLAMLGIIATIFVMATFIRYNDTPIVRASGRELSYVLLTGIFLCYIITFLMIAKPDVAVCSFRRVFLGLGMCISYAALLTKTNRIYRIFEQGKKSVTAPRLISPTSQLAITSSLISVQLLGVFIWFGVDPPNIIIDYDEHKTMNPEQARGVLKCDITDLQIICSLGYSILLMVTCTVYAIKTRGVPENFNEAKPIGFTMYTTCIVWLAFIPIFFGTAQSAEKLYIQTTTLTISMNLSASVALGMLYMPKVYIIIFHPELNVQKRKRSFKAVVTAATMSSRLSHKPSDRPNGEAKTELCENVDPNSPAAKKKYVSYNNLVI

With `O=C(Nc1cccc(Cl)c1)c1ccccn1` the fold shift was 1.44 (inactive).
